From paper PMC10613275 (Scientific Reports, 2023)
“Also recorded” adds a separate entry of the source. Read-outs that look alike come from different tables or passages of the source.

Assays:
[1] = tested on: fertilized eggs of white turkey (Meleagris gallopavo); details: 10 mg/egg ref 6; cited from earlier work
CHO-K1 cells = assay: Cytotoxicity, cell viability (resazurin assay), CHO-K1, with or without S9 mix; details: 1 day
[2] = tested on: Chinese hamster lung and human colonic epithelial cells; parameters: method as in PMID 32461162, PMID 24239523; details: in vitro ref 3, 5; cited from earlier work
[3] = parameters: method as in earlier work; details: guinea pigs, 1% p-BMHCA in ethanol, 120 µg substance/cm^2, 16 h ref 4; cited from earlier work
RPTEC/TERT1 cells = assay: Nephrotoxicity, RT-qPCR of kidney damage biomarkers; assay type: cell-based, human; details: up to 100 µM
Description: RPTEC/TERT1 cells were seeded at a concentration of 2 × 10^5 cells/ml in ProxUp2 medium into 60 mm Petri dishes. After 24 h, the cells were washed with PBS and […] metabolites (100 μM) were applied in fresh ProxUp2 medium. The cells were incubated with samples for 48 h, after which the cells were washed with PBS and dishes were frozen in - 160 °C. The RNA was isolated using RNeasy Plus Mini Kit (Qiagen, Hilden, Germany). The RNA concentration and purity was determined with NanoDrop One (ThermoFisher Scientific) spectrophotometr. The cDNA synthesis was performed from 0.1 μg of total RNA with an iScript Reverse Transcription Supermix (Bio-Rad, Hercules, California, USA). Quantitative real-time PCR (qPCR) was performed using the qPCR Bio-Rad C100 Touch System (Bio-Rad) with a 96-well block. The reaction mixture consisted of 1 μl of specific 20 × PrimePCR Assay (Bio-Rad), 10 μl of 2 × SsoAdvance Universal Supermix (Bio-Rad), 2 μl of cDNA sample, 7 μl of nuclease-free water. The final reaction volume was 20 μl. […] Cycling parameters were: initial denaturation at 95 °C for 2 min, followed by 40 cycles of 95 °C for 5 s and 60 °C for 30 s. Fluorescence values were acquired after each extension phase. Samples were analyzed in triplicate, and samples with a standard deviation of duplicates > 0.2 Ct were re-analyzed. A non-template control containing nuclease-free water instead of cDNA as well as non-RT control containing purified RNA without reverse transcription was used. The real-time PCR study followed the MIQE guidelines. Relative transcript levels of the estimated genes in the cell lines were compared using the software CFX Maestro Software 2.3 (Bio-Rad).

HeLa cells = assay: γH2AX biomarker-based genotoxicity assay, HeLa; assay type: cell-based, human; details: for MoA (mean fluorescence values over area of the nuclei): PC 30 μM
Description: Briefly, HeLa and CHO-K1 cells were seeded at a concentration of 1 × 10^5 cells/ml into the 96-well plates. CHO-K1 cells were used for comparison with HPRT test. HeLa cells were recommended by the manufacturer of the kit. After 24 h, cells were rinsed with PBS and cultivation medium (“Cell lines” Section) without ATB, with a reduced content of FBS (5%) was added. 30 µM valinomycin (in DMSO) was used as a positive control Samples were applied in the presence of non-toxic sample concentrations, i.e. 100 µM either with or without S9 mix. […] Cells were photographed using a fluorescence microscope (Olympus IX83); filters: DAPI (500 ms) and Cy3 (500 ms). Bioimage analysis in ImageJ software was performed as described previously.

[4] = tested on: S. typhimurium and E. coli, CHO and Chinese hamster V79 cells; details: cited from earlier work
HepG2 cells = details: HepG2, 100 µM ref 2; cited from earlier work
Caco-2 cells = details: Caco-2, 100 µM ref 2; cited from earlier work
Hek293 cells = details: Hek293 ref 2; cited from earlier work
NRF2-ARE signal pathway = NRF2-ARE signal pathway activation, luciferase reporter in transfected HEK293; assay type: cell-based, human; details: HEK293, 100 µM (Table 1), 18 h
From the text: […]. HEK293 cells were transiently transfected with reporter plasmid pGL4.32 (luc2P/NF-κB-RE/Hygro, Promega Corporation, Madison, Wisconsin, USA) or pGL4.37 (luc2P/NRF2-ARE/Hygro) using FuGENE (Promega Corporation). Plasmid pEGFP-C1 carrying the gene for green fluorescent protein (GFP) was co-transfected with the reporter plasmids as a normalization plasmid enabling normalization of the signal to transfection level. To test the activation of NF-κB pathway, TNFα (in the range from 13 to 200 pg/ml) as a positive control or samples (50 µM) were incubated with the cells for 5 h. […] The fluorescence (488/513 nm) was determined using SpectraMax i3x Multi-Mode Microplate Reader (Molecular Devices, San Jose, California, USA). Subsequent quantification of luciferase activity was performed using the Bright-Glo™ Luciferase Assay System (Promega Corporation) according to the manufacturer’s instructions.

[5] = parameters: method as in earlier work; details: rat, 1% p-BMHCA in ethanol, 120 µg substance/cm^2, 16 h ref 4; cited from earlier work
[6] = parameters: method as in PMID 32461162; details: cited from earlier work

For CC(C=O)Cc1ccc(C(C)(C)C)cc1 (stereo not drawn) [Lilial, 3-(4-(tert-butyl)phenyl)-2-methylpropanal], the “DNA strand breaks in the comet assay” value [1] is given as 2.0 fold, the Toxic concentration (CHO-K1 cells; 5 nm–500 µM, without S9) is given as no less than 250 µM and the “Cytotoxicity result after metabolization by the S9 mix” value (CHO-K1 cells; up to 500 µM, with S9 mix) is given as “no cytotoxicity”. For the same compound, the “Mutagenicity in mammalian cell gene mutation assay” value [2] was “not mutagenic”, the “In vitro dermal absorption” value [3] was 25.7% and the Nephrotoxicity result (RPTEC/TERT1 cells) was “Non nephrotoxic”. The Nephrotoxicity result (RPTEC/TERT1 cells; listed as lilial) was “not toxic; also recorded: neither lilial, nor its metabolites, demonstrated nephrotoxic activity”, the Genotoxicity result (HeLa cells; 100 µM) was “Non genotoxic” and the “MoA (mean fluorescence values over area of the nuclei)” value (HeLa cells; 4h_S9, lilial 100 µM) was 0.20. The “MoA (mean fluorescence values over area of the nuclei)” value (HeLa cells; 4 h, without S9, lilial 100 µM) was 0.11, the “MoA (mean fluorescence values over area of the nuclei)” value (HeLa cells; 24 h, lilial 100 µM) was 0.03 and the “Genotoxic and mutagenic potential” value [4] was “No genotoxic and mutagenic potential”. The “Decrease in cell viability” value (HepG2 cells) was 23%, the “Decrease in cell viability” value (Caco-2 cells) was 23% and the “Effect on cell viability” value (Hek293 cells) was “no negative effect”. For the same compound, the “NRF2-ARE signal pathway activation result” value (NRF2-ARE signal pathway) was “Non activator”, the “NRF2-ARE signal pathway activation result” value (NRF2-ARE signal pathway; listed as lilial) was “neither the NF-kB (Fig. 7) nor NRF2 (Fig. 8) signalling pathway was activated” and the “In vitro dermal absorption” value [5] was 78.4%. For the same compound, the Dermal absorption value ([6]; hydroalcoholic-based fragrances and deodorant/antiperspirant products ref 3) was 13.5%, the Dermal absorption value ([6]; oil-in-water-based products ref 3) was 8.9% and the Dermal absorption value ([6]; water-in-oil-based products ref 3) was 10.5%.
